The assay addresses T1, Myriococcum thermophilum cellobiose dehydrogenase (CDH, SEQ ID NO: 1) variant N313S (Thermothelomyces myriococcoides, UniProt A9XK88, N313S).
T1 sequence (A9XK88 22-828 N313S): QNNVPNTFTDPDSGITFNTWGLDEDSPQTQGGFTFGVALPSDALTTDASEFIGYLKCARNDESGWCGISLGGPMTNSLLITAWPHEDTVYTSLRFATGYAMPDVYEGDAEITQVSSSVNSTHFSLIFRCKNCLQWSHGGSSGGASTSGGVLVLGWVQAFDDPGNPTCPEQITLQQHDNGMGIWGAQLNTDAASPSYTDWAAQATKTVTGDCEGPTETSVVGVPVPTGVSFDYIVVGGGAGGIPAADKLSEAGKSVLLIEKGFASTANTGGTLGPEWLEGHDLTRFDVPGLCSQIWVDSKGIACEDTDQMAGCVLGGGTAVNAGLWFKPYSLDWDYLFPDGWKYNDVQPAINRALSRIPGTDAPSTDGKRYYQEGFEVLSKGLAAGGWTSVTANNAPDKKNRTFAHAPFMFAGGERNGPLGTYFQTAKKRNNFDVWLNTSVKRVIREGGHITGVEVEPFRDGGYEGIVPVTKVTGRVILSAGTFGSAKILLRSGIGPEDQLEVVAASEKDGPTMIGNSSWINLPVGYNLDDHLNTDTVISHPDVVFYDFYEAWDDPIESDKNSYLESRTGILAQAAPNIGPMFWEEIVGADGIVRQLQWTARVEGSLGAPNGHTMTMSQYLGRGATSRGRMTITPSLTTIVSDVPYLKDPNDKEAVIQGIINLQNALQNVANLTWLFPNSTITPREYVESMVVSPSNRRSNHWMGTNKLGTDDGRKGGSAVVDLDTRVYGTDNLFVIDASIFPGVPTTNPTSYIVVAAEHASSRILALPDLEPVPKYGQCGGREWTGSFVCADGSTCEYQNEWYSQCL
Description: Steady-state kinetics, DCIP assay: M. thermophilum CDH N313S. The assay is classed as biochemical. Conditions: apparent, pH 4.5, 30° C. The method, then:
Enzyme activity was assayed at 30° C. using either the DCIP (Karapetyan et al., 2005 Journal of Biotechnology 121: 34-48) or cytochrome c (Canevascini et al., 1991, European Journal of Biochemistry 198: 43-52) as electron acceptor. […] Stock solutions of carbohydrates used for kinetic measurements were prepared in the respective buffer and allowed to stand overnight for mutarotation, while stock solutions of electron acceptors were prepared in water and immediately used. The reaction stoichiometry is 1 for the two-electron acceptor DCIP (1 mole of DCIP reduced per mole of carbohydrate oxidized), but 2 for the one-electron acceptor cytochrome c. Kinetic constants were calculated by fitting the observed data to the Henri-Michaelis-Menten equation or to the adapted model for substrate inhibition using nonlinear least-squares regression and the program SigmaPlot (Systat Software, San Jose, Calif., USA). […]
Recombinant wild-type CDH as well as variants were produced in 1 L baffled flasks. […] Increase in activity was monitored using the DCIP and the cytochrome c enzyme assays. […]
The sample was loaded on a 20 mL PHE Sepharose FF column (HR26/20) equilibrated with 50 mM Na-acetate buffer pH 5.5 containing 20% ammonium sulfate. […] Fractions were tested for CDH activity and pooled according to the highest Reinheitszahl (RZ, calculated from the absorbance ratio 420 nm/280 nm). […]

By kcat is commonly meant the maximal rate divided by the concentration of active sites. By kcat/KM is commonly meant the second-order rate constant that governs catalysis at low substrate concentration.

The structures appear in SMILES notation.

Turning to `OC[C@H]1OC(O)[C@H](O)[C@@H](O)[C@@H]1O` (some centres unmarked) [Glucose, glucose], the kcat was 6.8 s⁻¹ and the kcat/KM amounted to 8.8 M⁻¹ s⁻¹.

Source of the values: US10184115B2, “Mutated cellobiose dehydrogenase with increased substrate specificity” (DIRECTSENS GMBH, priority 2012, dated 2019).
